Experimental findings from patent US20250115612A1, “CERTAIN 2,5-DIAZABICYCLO[4.2.0]OCTANES AND OCTAHYDROFURO[3,4-B]PYRAZINES AS GLP-1 RECEPTOR MODULATORS” (ASTRAZENECA AB, priority 2021, published 2025) are described below.

The target in one test is T1, human GLP-1R receptor (Homo sapiens, UniProt P43220, L260F).
T1 construct: expressed in transfected cells; host or cells: CHO-K1 (ATCC CCL-61)
Kind of test: CHOK1 GLP-1R cAMP assay (HTRF). It counts as cell-based. The note with it: CHO-K1 cells stably expressing human GLP-1R. Here is the method:
A cell line stably expressing the human GLP-1R receptor (NM_002062.5, including the naturally-occurring variant Leu260Phe) in a CHO-K1 (ATCC® CCL-61™) was used for assay.
GLP-1 receptor mediated agonist activity was determined in a cell-based assay measuring cyclic adenosine monophosphate (cAMP) levels in cells using Homogeneous Time-Resolved Fluorescence (HTRF) cAMP detection kit (CisBio catalog #62AM4PEC, cAMP Gs Dynamic range kit). The cAMP detection method is based on a competitive immunoassay, in which cAMP produced by the cells and cAMP labeled with the dye d2 compete for binding to a Europium-Cryptate-labeled anti-cAMP antibody. The specific HTRF signal is inversely proportional to the concentration of cAMP.
Compounds were added to individual well in 384 well-assay plates (Greiner #784076) using an Echo (LabCyte) dispenser from 10 mM stocks. Varying concentration of compounds were added to wells, and DMSO was used to normalize each well to a volume of 100 nL. A dose response curve of GLP-1(7-36)NH2 (Bachem H-6795) was included in each run. 5 μL of cAMP concentration response standards are applied in specified wells in the assay plates. Cryo-preserved cells are thawed and resuspended in assay buffer pre-heated to 37° C. (20 mM 2-[4-(2-hydroxyethyl)piperazin-1-yl]ethanesulfonic acid (HEPES) pH 7.4, lx Hank's Balanced Salt Solution (HBSS, Life Technologies #14065) supplemented with 0.1% (w/v) bovine serum albumin (Sigma, A-7030)). Cells were centrifuged at 250*g for 5 min at rt, and resuspended in room tempered assay buffer to a final density of 0.16*10^6 cell/mL, to deliver 800 cells/well. 5 μL of assay buffer with 1 mM 3-isobutyl-1-methylxanthin (IBMX; Sigma cat I-7018) was dispensed per well in assay plates using a multidrop combi (Thermo Scientific) subsequently 5 μL of cell suspension was distributed to relevant wells in the assay using a multidrop dispenser. Assay plates were incubated 20 min at rt.
Detection reagents, Europium-Cryptate-labeled anti-cAMP antibody and cAMP labeled with the dye d2, are diluted in lysis buffer, provided by the manufacturer. 5 μL of each detection reagent is supplemented to each assay well using a multidrop dispenser. Assay plates are incubated in the dark for at least one h. The HTRF signal is measured using the HTRF module (excitation: 337 nm, emission A: 665 nm and emission B: 620 nm) in Pherastar FSX (BMG Labtech).
Raw data were converted to pM cAMP using the cAMP standard curve included in each run. Converted data were further analyzed in Genedata Screener (Genedata) and EC50 determinations were made from agonist dose-response curves analyzed with a curve fitting program using a 4-parameter logistic dose response equation (Equation y=A+((B−A)/1+((C/x)^D))) where A is no stimulation, B is full stimulation, C is the EC50 and D is the Hill slope). The percent effect was determined relative to a saturating concentration of a full GLP-1R agonist (GLP-1(7-36)NH2 has 100% effect in this assay setup).

Another test addresses T2, GLP-1R (Homo sapiens, UniProt P43220).
T2 construct: host or cells: EndoC-βH1
In words: EndoC cAMP accumulation assay (HTRF, EndoC-βH1 cells). The format is cell-based. Conditions: EndoC-βH1 human pancreatic β cell line. The text has this: EndoC cAMP Accumulation Assay
A HTRF cAMP assay (cAMP Gs dynamic kit; CisoBio Cat #62AM4PEJ) was used to identify agonists of GLP-1R in a pancreatic insulinoma cell line (EndoC-PH1). […] EndoC-βH1 cells have detectable GLP-1R messenger ribonucleic acid (mRNA) as detected by quantitative polymerase chain reaction (qPCR). […] The EndoC-βH1 cell line is a valid model of human beta cells and applicable for screenings to identify novel drug target candidates (Mol. Metab., 2018, 8, 144-157). CisBio HTRF cAMP kits are based on a competitive immunoassay using cryptate-labelled anti-cAMP antibody and d2-labeled cAMP. The detection kit is intended for the direct quantitative determination of cAMP. The specific signal (i.e. energy transfer) is inversely proportional to the concentration of cAMP in the standard or sample. Test compounds (10 mM in DMSO) were diluted into assay buffer (HBSS (Sigma #H8264) supplemented with 25 mM HEPES (Gibco #15630, pH 7.4), 0.1% BSA (Sigma #A3059) and 0.5 mM IBMX (Sigma #I7018) included fresh on the day of the assay) into 96 well U-bottom plates (Greiner #650201). Diluted compounds were transferred to ECHO source polypropelene plates (Labcyte #P-05525) and dose response curves were dispensed acoustically using ECHO 550 into black shallow-well u-bottom 384-well HTRF Assay Plates (Corning 4514).
Cryovials of EndoC-H1 (supplied at 1×10e^7 cells/vial) were used directly for screening. The cryovials and were removed from N2(l) and thawed rapidly in a 37° C. water bath. The cells were resuspended in assay buffer and centrifuged at 300 g for 5 min. Cells were resuspended in assay buffer at the appropriate concentration, typically at 12e5 cells per mL (3000 cells per well, dependent on cell batch) and 2.5 μL diluted cells were added to all wells of destination plate by Multidrop combi reagent dispenser (Thermofisher). The plates were incubated at rt for 30 min. The assay was stopped by adding 2.5 μL anti-cAMP cryptate solution to all wells and 2.5 μL cAMP-d2 solution (both diluted 1:20 in lysis buffer) to columns 1-22 by Combi drop. A volume of 2.5 μL cAMP-d2 solution was added to wells E23 to P24 and 2.5 μL lysis buffer added to wells A23 to D24 by multichannel pipette. The plates were incubated at rt for 1 h and read on an Envision plate reader using excitation wavelength of 320 nm and emission of 590 nm and 660 nm.
Raw data from Envision is converted to % DeltaF according to the manufacturer's instructions. Dose response curves are analysed via 4-Parameter Logistical Analysis and assay plate Z′ values obtained. Samples are graphed as percentage (%) activation plots compared to GIP (1-42, Bachem H-5645) with assay window defined by negative control as basal cell cAMP levels and positive control are defined by maximum GIP (82.5 nM) signal. GLP-1 (7-36 amide, Bachem H-6795) dose response curve was included on all plates.
(In general: cAMP levels reflect the balance of adenylyl cyclase and phosphodiesterase activity.)

T1 sequence (P43220 24-463 L260F): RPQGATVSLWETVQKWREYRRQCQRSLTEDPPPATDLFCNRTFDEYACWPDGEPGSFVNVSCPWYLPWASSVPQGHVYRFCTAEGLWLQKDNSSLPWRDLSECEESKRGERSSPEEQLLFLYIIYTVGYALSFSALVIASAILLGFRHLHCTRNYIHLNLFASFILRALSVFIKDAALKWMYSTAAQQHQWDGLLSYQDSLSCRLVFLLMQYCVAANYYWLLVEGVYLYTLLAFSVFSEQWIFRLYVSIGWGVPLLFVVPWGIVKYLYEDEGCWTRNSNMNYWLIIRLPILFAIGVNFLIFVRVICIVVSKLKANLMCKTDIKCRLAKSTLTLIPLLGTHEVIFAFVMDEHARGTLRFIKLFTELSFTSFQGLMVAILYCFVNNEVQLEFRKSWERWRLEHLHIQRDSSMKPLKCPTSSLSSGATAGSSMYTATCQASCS
T2 sequence (P43220 24-463): as the sequence (P43220 24-463 L260F) above, with F237L counted along it

Regarding `Cn1ccc(Cn2c(CN3CCN(c4cccc(OCc5ccc(C#N)cc5F)n4)[C@@H]4CC[C@@H]43)nc3ccc(C(=O)O)cc32)n1` (racemic) [Example 1, rac-2-(((1R,6S)-5-(6-((4-Cyano-2-fluorobenzyl)oxy)pyridin-2-yl)-2,5-diazabicyclo[4.2.0]octan-2-yl)methyl)-1-((1-methyl-1H-pyrazol-3-yl)methyl)-1H-benzo[d]imidazole-6-carboxylic acid], the EC50 – broadly, the concentration at which the effect is half-maximal – was found to be 0.13 µM on human GLP-1R receptor and 0.28 µM at GLP-1R.

On human GLP-1R receptor, `CC(C)(C)OCCn1c(CN2CCN(c3cccc(OCc4ccc(C#N)cc4F)n3)[C@@H]3CC[C@@H]32)nc2ccc(C(=O)O)cc21` (racemic) [Example 10, rac-1-(2-(tert-Butoxy)ethyl)-2-(((1R,6S)-5-(6-((4-cyano-2-fluorobenzyl)oxy)pyridin-2-yl)-2,5-diazabicyclo[4.2.0]octan-2-yl)methyl)-1H-benzo[d]imidazole-6-carboxylic acid] yielded an EC50 of 0.37 µM.

At human GLP-1R receptor, `CCCCOCCn1c(CN2CCN(c3cccc(OCc4ccc(C#N)cc4F)n3)[C@@H]3CC[C@@H]32)nc2ccc(C(=O)O)cc21` (racemic) [Example 11, rac-1-(2-Butoxyethyl)-2-(((1R,6S)-5-(6-((4-cyano-2-fluorobenzyl)oxy)pyridin-2-yl)-2,5-diazabicyclo[4.2.0]octan-2-yl)methyl)-1H-benzo[d]imidazole-6-carboxylic acid] registered an EC50 of 0.15 µM.

As for `Cc1cc(Cn2c(CN3CCN(c4cccc(OCc5ccc(C#N)cc5F)n4)[C@@H]4CC[C@@H]43)nc3ccc(C(=O)O)cc32)no1` (racemic) [Example 13, rac-2-(((1R,6S)-5-(6-((4-Cyano-2-fluorobenzyl)oxy)pyridin-2-yl)-2,5-diazabicyclo[4.2.0]octan-2-yl)methyl)-1-((5-methylisoxazol-3-yl)methyl)-1H-benzo[d]imidazole-6-carboxylic acid], the results for the EC50 on human GLP-1R receptor and on GLP-1R were 0.11 µM and 0.1 µM, respectively.

For the molecule `Cc1ccnc(Cn2c(CN3CCN(c4cccc(OCc5ccc(C#N)cc5F)n4)[C@@H]4CC[C@@H]43)nc3ccc(C(=O)O)cc32)c1` (racemic) [Example 14, rac-2-(((1R,6S)-5-(6-((4-Cyano-2-fluorobenzyl)oxy)pyridin-2-yl)-2,5-diazabicyclo[4.2.0]octan-2-yl)methyl)-1-((4-methylpyridin-2-yl)methyl)-1H-benzo[d]imidazole-6-carboxylic acid], the EC50 on human GLP-1R receptor was found to be 0.4 µM; on GLP-1R, 2.8 µM.

For the molecule `O=C(O)c1ccc2nc(CN3CCN(c4cccc(OCc5ccc(Cl)cc5F)n4)[C@@H]4COC[C@@H]43)n(C[C@@H]3CCO3)c2c1` (racemic) [Example 15, 2-(((4aRS,7aSR)-4-(6-((4-Chloro-2-fluorobenzyl)oxy)pyridin-2-yl)hexahydrofuro[3,4-b]pyrazin-1(2H)-yl)methyl)-1-(((S)-oxetan-2-yl)methyl)-1H-benzo[d]imidazole-6-carboxylic acid], the EC50 on human GLP-1R receptor turned out to be 0.0033 µM; at GLP-1R, 0.014 µM.

With `N#Cc1ccc(COc2cccc(N3CCN(Cc4nc5ccc(C(=O)O)cc5n4C[C@@H]4CCO4)[C@H]4CC[C@H]43)n2)c(F)c1` (single isomer, unassigned) [Example 2a, 2-(((1R*,6S*)-5-(6-((4-Cyano-2-fluorobenzyl)oxy)pyridin-2-yl)-2,5-diazabicyclo[4.2.0]octan-2-yl)methyl)-1-(((S)-oxetan-2-yl)methyl)-1H-benzo[d]imidazole-6-carboxylic acid], the concentration giving a half-maximal response (EC50) came to 0.0012 µM on human GLP-1R receptor and 0.0041 µM on GLP-1R.

For `N#Cc1ccc(COc2cccc(N3CCN(Cc4nc5ccc(C(=O)O)cc5n4C[C@@H]4CCO4)[C@H]4CC[C@H]43)n2)c(F)c1` (single isomer, unassigned) [Example 2b, 2-(((1R*,6S*)-5-(6-((4-Cyano-2-fluorobenzyl)oxy)pyridin-2-yl)-2,5-diazabicyclo[4.2.0]octan-2-yl)methyl)-1-(((S)-oxetan-2-yl)methyl)-1H-benzo[d]imidazole-6-carboxylic acid], the EC50 at human GLP-1R receptor is 0.017 µM; at GLP-1R, 0.032 µM.

As to `N#Cc1ccc(COc2cccc(N3CCN(Cc4nc5c(F)cc(C(=O)O)cc5n4C[C@@H]4CCO4)[C@H]4CC[C@@H]43)n2)c(F)c1` (single isomer, unassigned) [Example 3a, 2-(((1R*,6R*)-5-(6-((4-Cyano-2-fluorobenzyl)oxy)pyridin-2-yl)-2,5-diazabicyclo[4.2.0]octan-2-yl)methyl)-4-fluoro-1-(((S)-oxetan-2-yl)methyl)-1H-benzo[d]imidazole-6-carboxylic acid], the EC50 on human GLP-1R receptor was determined as 0.023 µM; at GLP-1R, 0.013 µM.

Consider `COc1cc(C(=O)O)cc2c1nc(CN1CCN(c3cccc(OCc4ccc(Cl)cc4F)n3)[C@H]3CC[C@@H]31)n2C[C@@H]1CCO1` (single isomer, unassigned) [Example 5a, 2-(((1R*,6R*)-5-(6-((4-Chloro-2-fluorobenzyl)oxy)pyridin-2-yl)-2,5-diazabicyclo[4.2.0]octan-2-yl)methyl)-4-methoxy-1-(((S)-oxetan-2-yl)methyl)-1H-benzo[d]imidazole-6-carboxylic acid], for which the EC50 at human GLP-1R receptor worked out at 0.0064 µM; on GLP-1R, 0.004 µM.

Turning to `N#Cc1ccc(COc2cccc(N3CCN(Cc4nc5c(Cl)cc(C(=O)O)cc5n4C[C@@H]4CCO4)[C@H]4CC[C@H]43)n2)c(F)c1` (single isomer, unassigned) [Example 6b], the EC50 at human GLP-1R receptor came out at 0.095 µM; on GLP-1R, 0.057 µM.

On to `N#Cc1ccc(COc2cccc(N3CCN(Cc4nc5cc(Cl)c(C(=O)O)cc5n4C[C@@H]4CCO4)[C@H]4CC[C@H]43)n2)c(F)c1` (single isomer, unassigned) [Example 7c], for which, on human GLP-1R receptor, the 50% effective concentration (EC50) came to 0.25 µM.

Turning to `CCn1cncc1Cn1c(CN2CCN(c3cccc(OCc4ccc(Cl)cc4F)n3)[C@H]3CC[C@@H]32)nc2c(OC)cc(C(=O)O)cc21` (single isomer, unassigned) [Example 12a], the EC50 on human GLP-1R receptor is 0.0022 µM.
